Results: ChEMBL document CHEMBL5046254, “Mycobactin Analogues with Excellent Pharmacokinetic Profile Demonstrate Potent Antitubercular Specific Activity and Exceptional Efflux Pump Inhibition” (J Med Chem, 2022)
In brackets after ≈: the same amount, converted by molar mass. Activity calls are given as the source filed them. The rule behind the calls is not given here.

What was measured:
[1] = Tlast in Sprague-Dawley rat at 5 mg/kg, po; assay type: ADME, organism-based; conditions: in vivo
[2] = Selectivity index, ratio of GIC90 for cytotoxicity against mouse RAW264.7 cells to MIC90 for Antitubercular activity against Mycobacterium smegmatis mc2155 ATCC 700084; assay type: toxicity, cell-based; conditions: read-out: Selectivity Index
THP-1 = experiment: Cytotoxicity against human THP-1 cells assessed as inhibition of growth measured for 48 hrs by resazurin microtiter assay; assay type: functional
[3] = system: Mycobacterium tuberculosis; experiment: microbe, parasite or virus in culture; conditions: H37Rv ATCC 27294, 192 h
[4] = Elimination half life in Sprague-Dawley rat at 1 mg/kg, iv; assay type: ADME, organism-based; conditions: in vivo, read-out: beta t1/2 (converted)
[5] = Oral bioavailability in Sprague-Dawley rat at 5 mg/kg; assay type: ADME, organism-based; conditions: in vivo
[6] = system: Mycobacterium tuberculosis; experiment: microbe, parasite or virus in culture; conditions: H37Rv ATCC 27294, 192 h; remark: listed apart in the source
[7] = Elimination half life in Sprague-Dawley rat at 5 mg/kg, po; assay type: ADME, organism-based; conditions: in vivo, read-out: beta t1/2 (converted)
[8] = Cmax in Sprague-Dawley rat at 1 mg/kg, iv; assay type: ADME, organism-based; set-up: route intravenous, dose 1 mg/kg; conditions: in vivo
[9] = system: Mycolicibacterium smegmatis; experiment: Bacteriostatic activity against Mycobacterium smegmatis mc2155 ATCC 700084 assessed as inhibition of bacterial growth preincubated for 48 hrs followed by agar surface scraped and transfer to GAST medium and measured after 5 days by HT-SPOTi assay; assay type: functional, organism-based; conditions: time 7.0 day
[10] = Selectivity index, ratio of GIC90 for Cytotoxicity against mouse RAW264.7 cells to MIC90 for Antitubercular activity against Mycobacterium bovis BCG ATCC 35734; assay type: toxicity, cell-based; conditions: read-out: Selectivity Index
[11] = Tlast in Sprague-Dawley rat at 1 mg/kg, iv; assay type: ADME, organism-based; conditions: in vivo
[12] = AUClast in Sprague-Dawley rat at 1 mg/kg, iv; assay type: ADME, organism-based; set-up: route intravenous, time 0 - last, dose 1 mg/kg; conditions: in vivo
[13] = system: Mycolicibacterium smegmatis; experiment: Synergistic antibacterial activity against Mycobacterium smegmatis mc2155 ATCC 700084 assessed as fractional inhibitory concentration in presence of isoniazid by checker board assay; assay type: functional
[14] = AUCinfinity in Sprague-Dawley rat at 5 mg/kg, po; assay type: ADME, organism-based; set-up: time infinity, route oral, dose 5 mg/kg; conditions: in vivo
[15] = system: Mycolicibacterium smegmatis; experiment: Antitubercular activity against Mycobacterium smegmatis mc2155 ATCC 700084 cultured in GAST-Fe media incubated for 24 hrs by resazurin microtiter assay; assay type: functional
[16] = Cmax in Sprague-Dawley rat at 5 mg/kg, po; assay type: ADME, organism-based; set-up: route oral, dose 5 mg/kg; conditions: in vivo
[17] = AUClast in Sprague-Dawley rat at 5 mg/kg, po; assay type: ADME, organism-based; set-up: time 0 - last, route oral, dose 5 mg/kg; conditions: in vivo
[18] = system: Mycolicibacterium smegmatis; experiment: Antibacterial activity against Mycobacterium smegmatic mc2155 ATCC 700084 assessed as inhibition of efflux pump using ethidium bromide as substrate measured every min for 45 mins; assay type: functional, organism-based
[19] = biological target: T1, Salicyl-AMP ligase / salicyl-S-ArCP synthetase (Mycobacterium tuberculosis) (UniProt P71716); experiment: Binding affinity to Mycobacterium tuberculosis MbtA assessed as change in thermal stability at 100 uM incubated for 1 hr in presence of ATP at pH 8.5 by thermo fluorometer analysis
T1 sequence (whole entry): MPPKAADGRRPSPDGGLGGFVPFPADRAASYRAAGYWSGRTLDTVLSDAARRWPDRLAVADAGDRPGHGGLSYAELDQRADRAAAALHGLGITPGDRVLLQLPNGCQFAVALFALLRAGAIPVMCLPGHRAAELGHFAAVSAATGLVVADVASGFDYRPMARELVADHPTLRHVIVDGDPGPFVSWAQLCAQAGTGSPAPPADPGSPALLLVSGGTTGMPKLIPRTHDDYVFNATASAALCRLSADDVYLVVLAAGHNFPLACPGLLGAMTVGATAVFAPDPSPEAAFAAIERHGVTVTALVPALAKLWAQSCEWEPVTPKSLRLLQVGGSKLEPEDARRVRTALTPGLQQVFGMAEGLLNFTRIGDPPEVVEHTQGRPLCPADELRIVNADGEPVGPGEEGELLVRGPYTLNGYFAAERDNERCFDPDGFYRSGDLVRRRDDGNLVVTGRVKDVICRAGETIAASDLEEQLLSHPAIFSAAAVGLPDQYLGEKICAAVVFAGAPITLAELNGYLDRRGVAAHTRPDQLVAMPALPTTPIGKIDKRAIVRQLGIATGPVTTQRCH

Mycolicibacterium aurum [20] = experiment: Antimycobacterial activity against Mycobacterium aurum ATCC 10437 cultured in GAST media incubated for 72 hrs by resazurin microtiter assay; assay type: functional
[21] = Selectivity index, ratio of GIC90 for Cytotoxicity against mouse RAW264.7 cells MIC90 for Antitubercular activity against Mycobacterium aurum ATCC 10437; assay type: toxicity, cell-based; conditions: read-out: Selectivity Index
[22] = Selectivity index, ratio of GIC90 for Cytotoxicity against […] human THP-1 cells to MIC90 for Antitubercular activity against Mycobacterium bovis BCG ATCC 35734; assay type: toxicity, cell-based; conditions: read-out: Selectivity Index
[23] = system: Mycolicibacterium smegmatis; experiment: Antitubercular activity against Mycobacterium smegmatis mc2155 ATCC 700084 cultured in GAST media incubated for 24 hrs by resazurin microtiter assay; assay type: functional
[24] = Selectivity index, ratio of GIC90 for Cytotoxicity against human THP-1 cells to MIC90 for Antitubercular activity against Mycobacterium aurum ATCC 10437; assay type: toxicity, cell-based; conditions: read-out: Selectivity Index
[25] = system: Mycolicibacterium smegmatis; experiment: Antibacterial activity against Mycobacterium smegmatis mc2155 ATCC 700084 cultured in iron supplemented medium assessed as inhibition of siderophore production at 4 ug/ml measured after 3 hrs by CAS assay relative to control; assay type: functional; set-up: scale not given: the % may be the effect or the level left; conditions: dose 4 µg/ml
[26] = system: Mycolicibacterium smegmatis; experiment: Synergistic antibacterial activity against Mycobacterium smegmatis mc2155 ATCC 700084 assessed as fractional inhibitory concentration in presence of rifampicin by checker board assay; assay type: functional
[27] = AUCinfinity in Sprague-Dawley rat at 1 mg/kg, iv; assay type: ADME, organism-based; set-up: time infinity, route intravenous, dose 1 mg/kg; conditions: in vivo
[28] = Hepatic clearance in Sprague-Dawley rat at 1 mg/kg, iv; assay type: ADME, organism-based, Liver; conditions: in vivo
[29] = biological target: T1, Salicyl-AMP ligase / salicyl-S-ArCP synthetase (Mycobacterium tuberculosis); experiment: Binding affinity to Mycobacterium tuberculosis MbtA assessed as change in thermal stability at 100 uM incubated for 1 hr in presence of ATP at pH 7.5 by thermo fluorometer analysis
[30] = Selectivity index, ratio of GIC90 for cytotoxicity against human THP-1 cells to MIC90 for Antitubercular activity against Mycobacterium smegmatis mc2155 ATCC 700084; assay type: toxicity, cell-based; conditions: read-out: Selectivity Index
Mycolicibacterium aurum [31] = experiment: Antimycobacterial activity against Mycobacterium aurum ATCC 10437 cultured in GAST-Fe media incubated for 72 hrs by resazurin microtiter assay; assay type: functional
RAW264.7 = experiment: Cytotoxicity against mouse RAW264.7 cell assessed as inhibition of growth measured for 48 hrs by resazurin microtiter assay; assay type: functional
Mycolicibacterium aurum [32] = experiment: Antimycobacterial activity against Mycobacterium aurum ATCC 10437 infected in RAW264.7 cells assessed as inhibition of growth at 16 ug/ml incubated for 72 hrs by SPOTi assay; assay type: functional; set-up: scale not given: the % may be the effect or the level left; conditions: dose 16 µg/ml
[33] = Volume of distribution at steady state in Sprague-Dawley rat at 1 mg/kg, iv; assay type: ADME, organism-based; conditions: in vivo
[34] = system: Mycolicibacterium smegmatis; experiment: Bactericidal activity against Mycobacterium smegmatis mc2155 ATCC 700084 assessed as inhibition of bacterial growth preincubated for 48 hrs followed by agar surface scraped and transfer to GAST medium and measured after 5 days by HT-SPOTi assay; assay type: functional, organism-based; conditions: time 7.0 day

Oc1ccccc1C1=NNC(c2ccc(Br)cc2)C1 (configuration not stated)
Tlast [1]: 24 h | selectivity ratio [2]: 32 | GI90 (THP-1): 64 µg/mL (≈ 202 µM) | MIC90 [3]: 128 µg/mL (≈ 404 µM) | half-life [4]: 5.42 h | bioavailability [5]: 22% | MIC90 [6]: 8 µg/mL (≈ 25.2 µM) | half-life [7]: 5.32 h | Cmax [8]: 505 ng/mL | Activity [9]: Active | selectivity ratio [10]: 16 | Tlast [11]: 12 h | AUC(0-t) [12]: 155 ng·h/mL | FIC [13]: 0.6 | AUC(0-inf) [14]: 184 ng·h/mL | MIC90 [15]: 64 µg/mL (≈ 202 µM) | Cmax [16]: 47.4 ng/mL | AUC(0-t) [17]: 167 ng·h/mL | Activity [18]: Active | Tm [19]: 2.5 °C | MIC90 (Mycolicibacterium aurum [20]): 8 µg/mL (≈ 25.2 µM) | selectivity ratio [21]: 8 | selectivity ratio [22]: 16 | MIC90 [23]: 4 µg/mL (≈ 12.6 µM) | selectivity ratio [24]: 8 | Activity [25]: 51.76% | FIC [26]: 1.12 | AUC(0-inf) [27]: 167 ng·h/mL | CLH [28]: 100 mL/min/kg | Tm [29]: 2 °C | selectivity ratio [30]: 16 | MIC90 (Mycolicibacterium aurum [31]): 128 µg/mL (≈ 404 µM) | GI90 (RAW264.7): 128 µg/mL (≈ 404 µM) | Activity (Mycolicibacterium aurum [32]): 90% | Vdss [33]: 17.3 kg/L

NC(=S)N1N=C(c2ccccc2O)CC1c1ccc(O)cc1 (configuration not stated)
MIC90 [3]: 256 µg/mL (≈ 817 µM) | MIC90 [6]: 64 µg/mL (≈ 204 µM) | MIC90 [15]: > 256 µg/mL | MIC90 (Mycolicibacterium aurum [20]): 64 µg/mL (≈ 204 µM) | MIC90 [23]: 256 µg/mL (≈ 817 µM) | MIC90 (Mycolicibacterium aurum [31]): 128 µg/mL (≈ 408 µM)

NC(=S)N1N=C(c2ccccc2O)CC1c1ccccc1 (configuration not stated)
MIC90 [3]: 128 µg/mL (≈ 430 µM) | MIC90 [6]: 4 µg/mL (≈ 13.5 µM) | MIC90 [15]: 256 µg/mL (≈ 861 µM) | MIC90 (Mycolicibacterium aurum [20]): 64 µg/mL (≈ 215 µM) | MIC90 [23]: 128 µg/mL (≈ 430 µM) | MIC90 (Mycolicibacterium aurum [31]): 64 µg/mL (≈ 215 µM)

Oc1ccccc1C1=NNC(c2ccc(Cl)cc2)C1 (configuration not stated)
Tlast [1]: 24 h | selectivity ratio [2]: 32 | GI90 (THP-1): 64 µg/mL (≈ 235 µM) | MIC90 [3]: 128 µg/mL (≈ 469 µM) | half-life [4]: 4.76 h | bioavailability [5]: 21% | MIC90 [6]: 16 µg/mL (≈ 58.7 µM) | half-life [7]: 6.06 h | Cmax [8]: 448 ng/mL | selectivity ratio [10]: 16 | Tlast [11]: 12 h | AUC(0-t) [12]: 190 ng·h/mL | FIC [13]: 0.6 | AUC(0-inf) [14]: 215 ng·h/mL | Activity [34]: Active | MIC90 [15]: 64 µg/mL (≈ 235 µM) | Cmax [16]: 51.6 ng/mL | AUC(0-t) [17]: 203 ng·h/mL | Activity [18]: Active | Tm [19]: 2 °C | MIC90 (Mycolicibacterium aurum [20]): 16 µg/mL (≈ 58.7 µM) | selectivity ratio [21]: 8 | selectivity ratio [22]: 16 | MIC90 [23]: 4 µg/mL (≈ 14.7 µM) | selectivity ratio [24]: 8 | Activity [25]: 54.7% | FIC [26]: 1.12 | AUC(0-inf) [27]: 197 ng·h/mL | CLH [28]: 84.8 mL/min/kg | Tm [29]: 2 °C | selectivity ratio [30]: 16 | MIC90 (Mycolicibacterium aurum [31]): 128 µg/mL (≈ 469 µM) | GI90 (RAW264.7): 128 µg/mL (≈ 469 µM) | Activity (Mycolicibacterium aurum [32]): 90% | Vdss [33]: 11.5 kg/L
